Drawing on patent publication US11084814B2, “Pyrido[3, 4-d]pyrimidine derivative and pharmaceutically acceptable salt thereof” (Teijin Pharma Limited, priority 2016, dated 2021), this text covers IC50 for 37 compounds.

For one test, the target named is T1, CDK4/cyclin D3 (Homo sapiens, UniProt P11802).
T1 construct: purchased Carna Biosciences, Inc. QS S Assist CDK4/Cyclin D3_FP Kit
Briefly: Human CDK4/cyclin D3 inhibitory activity (QS S Assist CDK4/Cyclin D3_FP Kit, IMAP fluorescent polarization). The following applies: read-out: CDK4 Activity symbol. Type of test: biochemical. The gist of the method: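 Kinase reactions used kit CDK4/cyclin D3 at 12.5–25 ng/well with the kit ATP/substrate/metal mix in 20 mM HEPES (pH 7.4), 0.01% Tween20 and 2 mM DTT, run 45 min at room temperature. Phosphorylation was detected by IMAP fluorescence polarization (ex 485/em 535 nm) after 30 min binding in the dark. IC50 was fitted from percent inhibition against DMSO controls with and without enzyme.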

A further test deals with T2, CDK2/cyclin A2 (Homo sapiens, UniProt P24941).
T2 construct: purchased Carna Biosciences, Inc. QS S Assist CDK2/Cyclin A2_FP Kit
Briefly: Human CDK2/cyclin A2 inhibitory activity (QS S Assist CDK2/Cyclin A2_FP Kit, IMAP fluorescent polarization). The class given is biochemical. The following applies: read-out: CDK2 Activity symbol. An outline of the steps:
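Kit CDK2/cyclin A2 (2.5 ng/well) was reacted with kit ATP/substrate/metal in 20 mM HEPES pH 7.4, 0.01% Tween 20 and 2 mM DTT for 60 min at room temperature. IMAP binding reagent was added for 30 min, then fluorescence polarization was read at 485/535 nm. IC50 came from dose-response fitting of percent inhibition.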

T1 sequence (P11802 whole entry): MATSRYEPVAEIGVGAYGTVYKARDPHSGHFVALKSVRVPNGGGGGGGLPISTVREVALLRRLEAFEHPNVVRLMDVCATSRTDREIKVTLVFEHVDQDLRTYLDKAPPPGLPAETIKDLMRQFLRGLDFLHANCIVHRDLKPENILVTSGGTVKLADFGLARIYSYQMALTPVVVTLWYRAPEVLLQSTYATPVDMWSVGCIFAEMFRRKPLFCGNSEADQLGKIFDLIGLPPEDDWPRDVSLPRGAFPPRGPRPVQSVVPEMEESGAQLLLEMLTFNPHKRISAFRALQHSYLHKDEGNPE
T1 sequence (P30281 whole entry partner): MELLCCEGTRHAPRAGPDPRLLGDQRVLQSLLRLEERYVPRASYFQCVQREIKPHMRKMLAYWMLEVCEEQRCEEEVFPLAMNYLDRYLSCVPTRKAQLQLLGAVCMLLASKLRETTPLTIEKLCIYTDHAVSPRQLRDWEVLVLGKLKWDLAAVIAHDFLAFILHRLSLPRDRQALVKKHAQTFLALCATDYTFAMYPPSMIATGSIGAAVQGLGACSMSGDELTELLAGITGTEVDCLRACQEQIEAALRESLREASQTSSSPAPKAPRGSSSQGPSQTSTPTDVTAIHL

`OCCN1CCN(Cc2ccc(Nc3ncc4cc(CO)nc(N5CCCCC5)c4n3)nc2)CC1` [Compound 96]: the IC50 was below 10 nM at CDK4/cyclin D3 and at least 100 nM on CDK2/cyclin A2.

As to `C[C@@H](O)c1cc2cnc(Nc3ccc(CN4CCN(C)CC4)cn3)nc2c(N2CCC[C@H](F)C2)n1` [Compound 179], the IC50 on CDK4/cyclin D3 is below 10 nM; on CDK2/cyclin A2 it was at least 100 nM.

As to `C[C@@H](O)c1cc2cnc(Nc3ccc(CN4CCN(CCO)CC4)cn3)nc2c(N2CCCC2)n1` [Compound 48], the IC50 at CDK4/cyclin D3 was below 10 nM; on CDK2/cyclin A2, at least 100 nM.

In the case of `C[C@@H](O)c1cc2cnc(Nc3ccc(CN4CCN(C)CC4)cn3)nc2c(N2C3CCC2CC3)n1` [Compound 143], the IC50 at CDK4/cyclin D3 is below 10 nM; on CDK2/cyclin A2, at least 100 nM.

As to `C[C@@H](O)c1cc2cnc(Nc3ccc(N4CC5(C4)CN(C4COC4)C5)nn3)nc2c(N2CCCCC2)n1` [Compound 324], the IC50 on CDK4/cyclin D3 is below 10 nM; at CDK2/cyclin A2 it was at least 100 nM.

`C[C@@H](O)c1cc2cnc(Nc3ccc4c(n3)CCN(C(=O)CNC3COC3)C4)nc2c(N2C3CCC2CC3)n1` [Compound 234]: the figures for the IC50 on CDK4/cyclin D3 and on CDK2/cyclin A2 were 10 to 100 nM and at least 100 nM, respectively.

On to `C[C@@H](O)c1cc2cnc(Nc3ccc(C(=O)N(C)CCN(C)C)cn3)nc2c(N2CCCCC2)n1` [Compound 316], for which the IC50 on CDK4/cyclin D3 is below 10 nM; on CDK2/cyclin A2, at least 100 nM.

As to `C[C@@H](O)c1cc2cnc(Nc3ccc4c(n3)CCN(C(=O)[C@H]3C[C@@H](O)CN3)C4)nc2c(N2CCCCC2)n1` [Compound 213], the IC50 is below 10 nM on CDK4/cyclin D3 and at least 100 nM at CDK2/cyclin A2.

Consider `C[C@@H](O)c1cc2cnc(Nc3ccc4c(n3)CCN(CCO)C4)nc2c(N2CCCCC2)n1` [Compound 111], for which the IC50 on CDK4/cyclin D3 is below 10 nM; on CDK2/cyclin A2, at least 100 nM.

On to `C[C@@H](O)c1cc2cnc(Nc3ccc4c(n3)CCN(C(=O)Cn3cccn3)C4)nc2c(N2CCCCC2)n1` [Compound 331], for which the IC50 on CDK4/cyclin D3 was 10 to 100 nM; at CDK2/cyclin A2, at least 100 nM.

As to `Cc1nc(Nc2ncc3cc([C@@H](C)O)nc(N4CCCCC4)c3n2)ccc1N1CC2(C1)CN(C1COC1)C2` [Compound 327], the figures for the IC50 on CDK4/cyclin D3 and on CDK2/cyclin A2 were below 10 nM and at least 100 nM, respectively.

Regarding `C[C@@H](O)c1cc2cnc(Nc3ccc(N4CCNCC4)nn3)nc2c(N2CCCC(C(=O)O)C2)n1` (some centres unmarked) [Compound 40], the IC50 at CDK4/cyclin D3 was below 10 nM; at CDK2/cyclin A2, at least 100 nM.

With `C[C@@H](O)c1cc2cnc(Nc3ccc4c(n3)CCN([C@H]3CC[C@@H](O)CC3)C4)nc2c(N2CCCCC2)n1` [Compound 284], the IC50 was 10 to 100 nM on CDK4/cyclin D3 and at least 100 nM at CDK2/cyclin A2.

As for `C[C@@H](O)c1cc2cnc(Nc3ccc(N4CCNCC4=O)cn3)nc2c(N2CCC(F)CC2)n1` [Compound 90], the IC50 was below 10 nM at CDK4/cyclin D3 and at least 100 nM at CDK2/cyclin A2.

As to `C[C@@H](O)c1cc2cnc(Nc3ccc4c(n3)CCN(CCN(C)C)C4)nc2c(N2CCCCC2)n1` [Compound 60], the figures for the IC50 at CDK4/cyclin D3 and on CDK2/cyclin A2 were below 10 nM and at least 100 nM, respectively.

Consider `C[C@@H](O)c1cc2cnc(Nc3ccc(CN4CCC(C#N)CC4)cn3)nc2c(N2CCCCC2)n1` [Compound 326], for which the IC50 on CDK4/cyclin D3 was below 10 nM; on CDK2/cyclin A2, at least 100 nM.

As to `C[C@@H](O)c1cc2cnc(Nc3ccc(OC4CCNCC4)cn3)nc2c(N2CCCCC2)n1` [Compound 164], the IC50 on CDK4/cyclin D3 was below 10 nM; on CDK2/cyclin A2, at least 100 nM.

As for `C[C@@H](O)c1cc2cnc(Nc3ccc4c(n3)CCNC4)nc2c(N2CCC(C#N)CC2)n1` [Compound 274], the results for the IC50 at CDK4/cyclin D3 and on CDK2/cyclin A2 were below 10 nM and at least 100 nM, respectively.

Consider `C[C@@H](O)c1cc2cnc(Nc3ccc(N4CCN(CCS(C)(=O)=O)CC4)nn3)nc2c(N2CCCCC2)n1` [Compound 114, (R)-1-(2-((6-(4-(2-(methylsulfonyl)ethyl)piperazin-1-yl)pyridazin-3-yl)amino)-8-(piperidin-1-yl)pyrido[3,4-d]pyrimidin-6-yl)ethanol], for which the IC50 was below 10 nM on CDK4/cyclin D3 and at least 100 nM on CDK2/cyclin A2.

For the compound `C[C@H]1CCN(c2nc([C@@H](C)O)cc3cnc(Nc4ccc(N5CCNCC5=O)cn4)nc23)C1` [Compound 257], the figures for the IC50 on CDK4/cyclin D3 and at CDK2/cyclin A2 were below 10 nM and at least 100 nM, respectively.

Regarding `C[C@@H](O)c1cc2cnc(Nc3ccc(N4CCNCC4)nn3)nc2c(N2CCCC2C(=O)O)n1` (some centres unmarked) [Compound 39], the figures for the IC50 on CDK4/cyclin D3 and on CDK2/cyclin A2 were below 10 nM and at least 100 nM, respectively.

With `C[C@@H](O)c1cc2cnc(Nc3ccc4c(n3)CCN(C3CCOCC3)C4)nc2c(N2CCCCC2)n1` [Compound 282], the IC50 is below 10 nM at CDK4/cyclin D3 and at least 100 nM at CDK2/cyclin A2.

On to `C[C@@H](O)c1cc2cnc(Nc3ccc(CN4CCN(CCO)CC4)cn3)nc2c(N2CCS(=O)(=O)CC2)n1` [Compound 85], for which the IC50 is 10 to 100 nM on CDK4/cyclin D3 and at least 100 nM at CDK2/cyclin A2.

For the compound `C[C@@H](O)c1cc2cnc(Nc3ccc(C(=O)N4CCC(N(C)C)CC4)cn3)nc2c(N2CCCCC2)n1` [Compound 315], the results for the IC50 at CDK4/cyclin D3 and at CDK2/cyclin A2 were below 10 nM and at least 100 nM, respectively.

For `C[C@H]1CCN(c2nc([C@@H](C)O)cc3cnc(Nc4ccc(CN5CCN(C)CC5)cn4)nc23)C1` [Compound 139], the results for the IC50 at CDK4/cyclin D3 and at CDK2/cyclin A2 were below 10 nM and at least 100 nM, respectively.

`CC(O)c1cc2cnc(Nc3ccc(N4CCNCC4)cn3)nc2c(N2CCOCC2C)n1` (centres unmarked) [Compound 289]: the IC50 at CDK4/cyclin D3 is below 10 nM; on CDK2/cyclin A2, at least 100 nM.

In the case of `Cc1nc(Nc2ncc3cc([C@@H](C)O)nc(N4CCOC[C@@H]4C)c3n2)ccc1N1CCNCC1` [Compound 296], the IC50 is below 10 nM on CDK4/cyclin D3 and at least 100 nM on CDK2/cyclin A2.

As for `OCCc1cc2cnc(Nc3ccc(N4CCNCC4)nn3)nc2c(N2CCCCC2)n1` [Compound 94], the IC50 is below 10 nM at CDK4/cyclin D3 and at least 100 nM on CDK2/cyclin A2.

`C[C@@H](O)c1cc2cnc(Nc3ccc4c(n3)CCN(C(=O)Cn3ccnc3)C4)nc2c(N2CCCCC2)n1` [Compound 286]: the IC50 at CDK4/cyclin D3 was below 10 nM; on CDK2/cyclin A2, at least 100 nM.

As for `C[C@@H](O)c1cc2cnc(Nc3ccc(C(=O)N4CCN(C)CC4)cn3)nc2c(N2CCCC2)n1` [Compound 318], the figures for the IC50 at CDK4/cyclin D3 and at CDK2/cyclin A2 were below 10 nM and at least 100 nM, respectively.

Take `C[C@H]1CCN(c2nc([C@@H](C)O)cc3cnc(Nc4ccc(N5CCCNCC5=O)cn4)nc23)C1` [Compound 258]: the figures for the IC50 on CDK4/cyclin D3 and on CDK2/cyclin A2 were below 10 nM and at least 100 nM, respectively.

`C[C@@H](O)c1cc2cnc(Nc3ccc4c(n3)CCN(CC#N)C4)nc2c(N2CCCCC2)n1` [Compound 196]: the results for the IC50 at CDK4/cyclin D3 and at CDK2/cyclin A2 were 10 to 100 nM and at least 100 nM, respectively.

`CC1CCC(C)N1c1nc([C@@H](C)O)cc2cnc(Nc3ccc(CN4CCN(CCO)CC4)cn3)nc12` (some centres unmarked) [Compound 101]: the IC50 on CDK4/cyclin D3 was below 10 nM; on CDK2/cyclin A2, at least 100 nM.

Consider `C[C@@H](O)c1cc2cnc(Nc3ccc(CN4CCN(CCO)CC4)cn3)nc2c(N2CCCCC2)n1` [Compound 49], for which the IC50 on CDK4/cyclin D3 is below 10 nM; on CDK2/cyclin A2, at least 100 nM.

Turning to `C[C@@H](O)c1cc2cnc(Nc3ccc4c(n3)CCN(C3CNC3)C4)nc2c(N2CCCCC2)n1` [Compound 175], the figures for the IC50 on CDK4/cyclin D3 and on CDK2/cyclin A2 were below 10 nM and at least 100 nM, respectively.

Consider `CC(O)c1cc2cnc(Nc3ccc(CN4CCN(C)CC4)cn3)nc2c(N2C3CCCC2CC3)n1` (centres unmarked) [Compound 174], for which the IC50 was below 10 nM on CDK4/cyclin D3 and at least 100 nM at CDK2/cyclin A2.

Turning to `C[C@@H](O)c1cc2cnc(Nc3ccc4c(n3)CCN(C(=O)CN3CC5(CC(O)C5)C3)C4)nc2c(N2C3CCC2CC3)n1` [Compound 267], the IC50 on CDK4/cyclin D3 was below 10 nM; at CDK2/cyclin A2 it was at least 100 nM.
